Experimental data taken from article PMC3072269 (Journal of medicinal chemistry, 2010).
Entries after “also recorded” stand apart in the source; their conditions may differ. Where two headings read alike, the source gives them in different places.

Legend:
PTEN mRNA = assay: Quantitative RT-PCR analysis of PTEN mRNA splicing in mouse tissues; type: in vivo, Balb/c mice; conditions: for PTEN mRNA in liver, quantitative RT-PCR: i.p. 3x/wk, 7 at 25 mg/kg, 1 at 40 mg/kg, PNAs 10 or 40 mg/kg
PTEN protein = assay: Western blot analysis of PTEN protein in mouse tissues; type: in vivo, Balb/c mice; conditions: 7 at 25 mg/kg, i.p. 3x/wk, 2 wks
PTEN = conditions: mice, determined in a previous study, cited from earlier work
[1] = tested on: CD40 cell surface protein expression; conditions: read-out: IC50, CD40 cell surface protein expression; flow cytometry, FITC labeled antiCD40 antibody; cited from earlier work
PTEN RNA = assay: Quantitative RT-PCR of PTEN RNA splicing in BCL1 cells; type: cell-based, murine; conditions: data not shown
[2] = amphipathic peptide study, dosing as in Table 6

## 1: uniform 2′-O-MOE phosphorothioate 20-mer CTCAGCACATCTACAAGAAA, PTEN intron 3:exon 4 (all 2'-MOE, all phosphorothioate, methylation of C not given here) [Compound 1, reference compound]
PTEN mRNA; 2 wks
  PTEN mRNA in liver, quantitative RT-PCR: modest downregulation of full length transcript with upregulation of the alternatively spliced product

## 7: antiPTEN phosphorothioate oligonucleotide with 2′-O-MOE wings and a 2′-deoxyribonucleotide gap, CTGCTAGCCTCTGGATTTGA, exon 9 [Compound 7]
PTEN mRNA; 2 wks
  PTEN mRNA in liver, quantitative RT-PCR: downregulation of total PTEN message (both isoforms)
PTEN protein; 9 at high dose (40 mg/kg)
  PTEN protein in adipose tissue, western blot: significant and comparable downregulation of PTEN protein
PTEN protein; PNAs 10 or 40 mg/kg
  PTEN protein expression in liver, western blot: significant inhibition of PTEN protein expression
PTEN; read-out: Adipose EC50
  EC50: 700 to 1400 nM
PTEN; read-out: Liver EC50
  EC50: 14000 nM

## (Lys)2-TKCTCAGCACATCTACA-Lys [Compound 10]
PTEN mRNA; 10 or 40 mg/kg i.p., 3x/wk, 2 wks
  PTEN mRNA splicing in white adipose tissue, quantitative RT-PCR: marginal with the alternatively spliced isoform being upregulated but the full length transcript being unaltered; also recorded: inactive at both doses

## CACAGATGACATTAG-Lys [Compound 8]
[1]
  IC50: 900 nM

## CTCAGCACATCTACA-Lys [Compound 3]
PTEN RNA
  alteration of splicing of PTEN RNA: full length transcript was reduced and the alternatively spliced product was enhanced

## D-(KKLLKAALKLAKKG)-TKCTCAGCACATCTACA-Lys [Compound 14]
PTEN mRNA; [2]
  PTEN splicing activity in adipose tissue, quantitative RT-PCR: showed activity at the low dose
  PTEN splicing activity in kidney, quantitative RT-PCR: comparable to the octa(L-lysine) conjugate 9, even when administered at an approximately 4.5-fold lower dose
Tolerability in mice; 8.25 mg/kg i.p., 3x/wk, 2 wks
  histopathological examination of the kidneys, low dose group: nephrotoxicity with proximal tubule necrosis and regeneration
Tolerability in mice; 33 mg/kg i.p.
  liver morphology, high dose group: appeared normal
  spleen size, high dose group: drastically reduced spleen sizes
Tolerability in mice; 33 mg/kg i.p., single administration
  histopathological examination of the kidneys, high dose group: profound proximal tubule necrosis and proteinacous accumulation in Henle’s loop and collecting tubules
Tolerability in mice; 33 mg/kg i.p., arm terminated prematurely
  body weight, high dose group: rapid weight loss after administration of the first dose, indicative of acute toxicity
